From patent publication EP1985624A2, “Single step method of radiofluorination of biologically active compounds or biomolecules” (Bayer Schering Pharma Aktiengesellschaft, priority 2007, dated 2008)
*1 amine or outer side, *2 acyl side, *3 side chain or, on linkers, in order; H or OH if unused. Where a SMILES comes first, the peptide text is derived from it. [ ]: non-standard residue; d: D form. The star is where a group is joined. X3 = CC(C)[C@H](N[*:1])[C@H](O)CC(=O)[*:2]; Benzoyl(3-CN,4-F) = N#Cc1cc(C(=O)*)ccc1F; Benzoyl(3,4-F2) = O=C(c1ccc(F)c(F)c1)*; NMeH = CN[C@@H](Cc1c[nH]cn1)C(=O)O; X1 = CCC(C)C(CCC(=O)[*:2])N[*:1]; β3hI = CC[C@H](C)[C@H](N)CC(=O)O; Tle = CC(C)(C)[C@H](N)C(=O)O; β3hL = CC(C)C[C@H](N)CC(=O)O; Ava = NCCCCC(=O)O; βAla = NCCC(=O)O; Sar = CNCC(=O)O

Biological target: T1, human bombesin 2 receptor (GRPR) (Homo sapiens, UniProt P30550)
T1 construct: using GRPR-containing cell membranes (Perkin Elmer); purchased Perkin Elmer
Experiment: competitive receptor-binding assay (scintillation proximity assay) with 125I-[Tyr4]-Bombesin
Details: not given
Protocol: In vitro binding affinity and specificity of Bombesin analogs for the human bombesin 2 receptor (GRPR) were assessed via a competitive receptor-binding assay using ^125I-[Tyr^4]-Bombesin (Perkin Elmer; specific activity 81.4 TBq/mmol) as GRPR-specific radioligand. The assay was performed based on the scintillation proximity assay (SPA) technology (Carpenter JW et al., Meth Mol Biol 2002; 190:31-49) using GRPR-containing cell membranes (Perkin Elmer) and wheat germ agglutinin (WGA)-coated PVT beads (Amersham Bioscience).
(§1) Briefly, GRPR-containing membranes and WGA-PVT beads were mixed in assay buffer (50 mM Tris/HCl pH 7.2, 5 mM MgCl2, 1 mM EGTA, Complete protease inhibitor (Roche Diagnostics GmbH) and 0.3% PEI) to give final concentrations of approximately 100 µg/ml protein and 40 mg/ml PVT-SPA beads. The ligand ^125I-[Tyr^4]-Bombesin was diluted to 0.5 nM in assay buffer. The test compounds were dissolved in DMSO to give 1 mM stock solutions Later on, they were diluted in assay buffer to 8 pM - 1.5 µM.
The assay was then performed as follows: First, 10 µl of compound solution to be tested for binding were placed in white 384 well plates (Optiplate-384, Perkin-Elmer). At next, 20 µl GRPR/WGA-PVT bead mixture and 20 µl of the ligand solution were added. After 90 minutes incubation at room temperature, another 50 µl of assay buffer were added, the plate sealed and centrifuged for 10 min at 520xg at room temperature. Signals were measured in a TopCount (Perkin Elmer) for 1 min integration time per well. The IC50 was calculated by nonlinear regression using the GraFit data analysis software (Erithacus Software Ltd.). Furthermore, the KI was calculated based on the IC50 for test compound as well as the KD and the concentration of the ligand ^125I-[Tyr^4]-Bombesin. Experiments were done with quadruple samples.
The Binding affinities measured for all the cold F-19 compounds are listed Table 2.
as §1, with “Lateron,” for “Later on,”

T1 sequence (P30550 whole entry): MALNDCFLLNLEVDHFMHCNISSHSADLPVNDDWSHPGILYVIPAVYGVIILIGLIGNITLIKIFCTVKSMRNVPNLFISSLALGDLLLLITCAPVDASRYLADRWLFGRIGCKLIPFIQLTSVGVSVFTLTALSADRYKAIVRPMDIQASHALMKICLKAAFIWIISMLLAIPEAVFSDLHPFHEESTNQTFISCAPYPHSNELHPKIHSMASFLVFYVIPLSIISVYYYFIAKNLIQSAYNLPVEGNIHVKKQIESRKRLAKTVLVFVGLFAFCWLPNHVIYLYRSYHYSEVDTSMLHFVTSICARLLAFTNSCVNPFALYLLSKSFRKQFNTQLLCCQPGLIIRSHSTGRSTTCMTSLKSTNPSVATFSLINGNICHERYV

| Molecule | Ki [nM] |
| --- | --- |
| CC(C)C[C@H](NC(=O)[C@H](Cc1ccccc1)NC(=O)[C@H](Cc1c[nH]cn1)N(C)C(=O)CCNC(=O)[C@@H](NC(=O)[C@H](C)NC(=O)[C@H](Cc1c[nH]c2ccccc12)NC(=O)[C@H](CCC(N)=O)NC(=O)CCCCNC(=O)c1ccc(F)c(F)c1)C(C)C)C(N)=O [IIB-a-54] ({Benzoyl(3,4-F2)-Ava}-QWAV[βAla][NMeH]FL-NH2) | 0.4 |
| CCC(C)C(CCC(=O)N[C@@H](CC(C)C)C(N)=O)NC(=O)[C@H](Cc1c[nH]cn1)N(C)C(=O)CNC(=O)[C@@H](NC(=O)[C@H](C)NC(=O)[C@H](Cc1c[nH]c2ccccc12)NC(=O)[C@H](CCC(N)=O)NC(=O)CCCCNC(=O)c1ccc(F)c(F)c1)C(C)C (stereo partly drawn) [IIB-a-50, 3,4-[19]Difluorobenzoyl-Ava-Gln-Trp-Ala-Val-Gly-NMeHis-4-Am,5-MeHpA-Leu-NH2] ({Benzoyl(3,4-F2)-Ava}-QWAVG[NMeH][X1]L-NH2) | > 25 |
| CC(C)C[C@H](NC(=O)[C@H](Cc1ccccc1)NC(=O)[C@@H](Cc1c[nH]cn1)NC(=O)CCNC(=O)[C@@H](NC(=O)[C@H](C)NC(=O)[C@H](Cc1c[nH]c2ccccc12)NC(=O)[C@H](CCC(N)=O)NC(=O)CCCCNC(=O)c1ccc(F)c(F)c1)C(C)C)C(N)=O [IIB-a-55] ({Benzoyl(3,4-F2)-Ava}-QWAV[βAla][dH]FL-NH2) | 19 |
| CC(C)C[C@H](NC(=O)C[C@@H](O)[C@@H](NC(=O)[C@H](Cc1c[nH]cn1)NC(=O)CN(C)C(=O)[C@@H](NC(=O)[C@H](C)NC(=O)[C@H](Cc1c[nH]c2ccccc12)NC(=O)[C@H](CCC(N)=O)NC(=O)CCCCNC(=O)c1ccc(F)c(F)c1)C(C)C)C(C)C)C(N)=O [IIB-a-51] ({Benzoyl(3,4-F2)-Ava}-QWAV[Sar]H[X3]L-NH2) | > 25 |
| CCC(C)C(CCC(=O)N[C@@H](CC(C)C)C(N)=O)NC(=O)[C@H](Cc1c[nH]cn1)NC(=O)CNC(=O)[C@@H](NC(=O)[C@H](C)NC(=O)[C@H](Cc1c[nH]c2ccccc12)NC(=O)[C@H](CCC(N)=O)NC(=O)CCCCNC(=O)c1ccc(F)c(C#N)c1)C(C)C (stereo partly drawn) [IIB-a-17, 4-[19]-Fluoro-3-cyano-benzoyl-Ava-Gln-Trp-Ala-Val-Gly-His-4-Am,S-MeHpA-Leu-NH2] ({Benzoyl(3-CN,4-F)-Ava}-QWAVGH[X1]L-NH2) | 1.9 |

Same assay, conditions: GRPR-containing cell membranes, 125I-[Tyr4]-Bombesin, 90 minutes at room temperature; Table 2, B1 = CO; read-out: Ki

| Molecule | Ki [nM] |
| --- | --- |
| CC(C)C[C@@H](CC(=O)N[C@H](C(N)=O)C(C)(C)C)NC(=O)[C@H](Cc1c[nH]cn1)NC(=O)CCNC(=O)[C@@H](NC(=O)[C@H](C)NC(=O)[C@H](Cc1c[nH]c2ccccc12)NC(=O)[C@H](CCC(N)=O)NC(=O)CCCCNC(=O)c1ccc(F)c(F)c1)C(C)C [IIB-a-58] ({Benzoyl(3,4-F2)-Ava}-QWAV[βAla]H[β3hL][Tle]-NH2) | > 50 |
| CC[C@H](C)[C@@H](CC(=O)N[C@@H](CC(C)C)C(N)=O)NC(=O)[C@H](Cc1c[nH]cn1)NC(=O)CCNC(=O)[C@@H](NC(=O)[C@H](C)NC(=O)[C@H](Cc1c[nH]c2ccccc12)NC(=O)[C@H](CCC(N)=O)NC(=O)CCCCNC(=O)c1ccc(F)c(F)c1)C(C)C [IIB-a-57] ({Benzoyl(3,4-F2)-Ava}-QWAV[βAla]H[β3hI]L-NH2) | > 50 |
| CC(C)C[C@@H](CC(=O)N[C@@H](CC(C)C)C(N)=O)NC(=O)[C@H](Cc1c[nH]cn1)NC(=O)CCNC(=O)[C@@H](NC(=O)[C@H](C)NC(=O)[C@H](Cc1c[nH]c2ccccc12)NC(=O)[C@H](CCC(N)=O)NC(=O)CCCCNC(=O)c1ccc(F)c(F)c1)C(C)C [IIB-a-56] ({Benzoyl(3,4-F2)-Ava}-QWAV[βAla]H[β3hL]L-NH2) | 45 |

System: not listed separately
Experiment: human serum stability of the F-18 labeled peptide (HPLC purity)
Format: in vitro ADME
Details: 37°C for 90 min, purity assessed by HPLC (phosphate buffer and TFA mobile phases)
Protocol: To qualify for pre-clinical and clinical use, it is necessary to establish the stability of the compound in human serum. The compound a 70 µL of human serum containing the F-18 labeled peptide (5.89 MBq/mL) was incubated at 37°C for 90 min. An aliquot was withdrawn at various intervals and the purity assessed by HPLC. The purity was evaluated in under two different conditions. Potassium hydrogen phosphate buffer system was used as a mobile phase to measure the stability of attached F-18 label. Column: C-18, Gradient: A: 10mM K2HPO4 pH:9,04; B: 10mM K2HPO4 pH:9,04/ACN 3/ 7; Flow rate: 2 mL, 5% A to 95% B in 7 min. [formula] [formula] [formula]
Trifluoroacetic acid system was used as a mobile phase to measure the stability of the entire molecule. Column: C-18, Gradient: A: 10% CH3CN: 90% H2O, B:90% CH3CN: 10% H2O containing 0.1 % TFA. [formula] [formula] [formula]

| Molecule | stability in human serum |
| --- | --- |
| 4-[18]Fluoro-3-cyano-benzoyl-Arg-Ava-Gln-Trp-Ala-Val-NMeGly-His-Sta-Leu-NH2 [IIA-a-1] | stable in human serum |
